According to patent publication US9718819B2 (Merck Sharp & Dohme Corp., priority 2012, dated 2017):

target: HIV-1 RT wild-type enzyme (Human immunodeficiency virus type 1 group M subtype B (isolate HXB2) (HIV-1), UniProt P04585); assay: HIV-1 reverse transcriptase inhibitory activity (RT polymerase assay); format: biochemical; conditions: HIV-1 RT wild-type enzyme 83 pM; RNA-dependent DNA polymerase activity; read-out: IC50
Method in brief: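 Enzyme and compound were preincubated 30 min at room temperature, then RNA/DNA hybrid (16.6 nM final; HCV-derived RNA, biotinylated primer) plus 2 μM dNTPs and 66.6 nM Ru-dUTP added, 90 min at 37 °C. Avidin capture and ECL counting; percent inhibition relative to DMSO (0%) and 1 μM efavirenz (100%), four-parameter IC50 fit.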

Row | SMILES | IC50 [nM]
1 | N#Cc1cc(Cl)cc(Oc2c(C(F)(F)F)ncn(Cc3cnc(-c4ccnc5[nH]ccc45)[nH]c3=O)c2=O)c1 [Example 158, 3-chloro-5-((6-oxo-1-((6-oxo-2-(1H-pyrrolo[2,3-b]pyridin-4-yl)-1,6-dihydropyrimidin-5-yl)methyl)-4-(trifluoromethyl)-1,6-dihydropyrimidin-5-yl)oxy)benzonitrile] | 11
2 | N#Cc1cc(Cl)cc(Oc2c(C(F)(F)F)ncn(Cc3cnc(-c4ccc(OC(F)F)cc4)[nH]c3=O)c2=O)c1 [Example 159, 3-chloro-5-((1-((2-(4-(difluoromethoxy)phenyl)-6-oxo-1,6-dihydropyrimidin-5-yl)methyl)-6-oxo-4-(trifluoromethyl)-1,6-dihydropyrimidin-5-yl)oxy)benzonitrile] | 17
3 | N#Cc1cc(Cl)cc(Oc2c(C(F)F)ncn(Cc3ccc(=O)[nH]n3)c2=O)c1 [Example 160, 3-chloro-5-((4-(difluoromethyl)-6-oxo-1-((6-oxo-1,6-dihydropyridazin-3-yl)methyl)-1,6-dihydropyrimidin-5-yl)oxy)benzonitrile] | 26
4 | N#Cc1cccc(Oc2c(C(F)(F)F)ncn(Cc3ccc(=O)[nH]n3)c2=O)c1F [Example 161, 2-fluoro-3-(6-oxo-1-((6-oxo-1,6-dihydropyridazin-3-yl)methyl)-4-(trifluoromethyl)-1,6-dihydropyrimidin-5-yloxy)benzonitrile] | 24
5 | N#Cc1cc(Cl)cc(Oc2c(OC(F)F)ncn(Cc3ccc(=O)[nH]n3)c2=O)c1 [Example 162, 3-chloro-5-(4-(difluoromethoxy)-6-oxo-1-((6-oxo-1,6-dihydropyridazin-3-yl)methyl)-1,6-dihydropyrimidin-5-yloxy)benzonitrile] | 79
6 | N#Cc1cc(Oc2c(C(F)(F)F)ncn(Cc3ccc(=O)[nH]n3)c2=O)cc(OC(F)F)c1 [Example 163, 3-(difluoromethoxy)-5-(6-oxo-1-((6-oxo-1,6-dihydropyridazin-3-yl)methyl)-4-(trifluoromethyl)-1,6-dihydropyrimidin-5-yloxy)benzonitrile] | 22
7 | Cc1c(C#N)cc(F)cc1Oc1c(C(F)(F)F)ncn(Cc2ccc(=O)[nH]n2)c1=O [Example 164, 5-fluoro-2-methyl-3-(6-oxo-1-((6-oxo-1,6-dihydropyridazin-3-yl)methyl)-4-(trifluoromethyl)-1,6-dihydropyrimidin-5-yloxy)benzonitrile] | 7
8 | N#Cc1cccc(Oc2c(C(F)(F)F)ncn(Cc3cc(-c4ccc(F)cc4)c(=O)[nH]n3)c2=O)c1F [Example 165, 2-fluoro-3-((1-((5-(4-fluorophenyl)-6-oxo-1,6-dihydropyridazin-3-yl)methyl)-6-oxo-4-(trifluoromethyl)-1,6-dihydropyrimidin-5-yl)oxy)benzonitrile] | 3
9 | N#Cc1cc(Cl)cc(Oc2c(OC(F)F)ncn(Cc3cc(-c4ccc(F)cc4)c(=O)[nH]n3)c2=O)c1 [Example 166] | 3
10 | N#Cc1cc(Oc2c(C(F)(F)F)ncn(Cc3cc(-c4ccc(F)cc4)c(=O)[nH]n3)c2=O)cc(OC(F)F)c1 [Example 167, 3-(difluoromethoxy)-5-((1-((5-(4-fluorophenyl)-6-oxo-1,6-dihydropyridazin-3-yl)methyl)-6-oxo-4-(trifluoromethyl)-1,6-dihydropyrimidin-5-yl)oxy)benzonitrile] | 6
11 | Cc1c(C#N)cc(F)cc1Oc1c(C(F)(F)F)ncn(Cc2cc(-c3ccc(F)cc3)c(=O)[nH]n2)c1=O [Example 168, 5-fluoro-3-((1-((5-(4-fluorophenyl)-6-oxo-1,6-dihydropyridazin-3-yl)methyl)-6-oxo-4-(trifluoromethyl)-1,6-dihydropyrimidin-5-yl)oxy)-2-methylbenzonitrile] | 5
12 | Cc1ncn(Cc2cc(-c3ccc(F)cc3)c(=O)[nH]n2)c(=O)c1Oc1cc(Cl)cc(C#N)c1 [Example 169, 3-chloro-5-((1-((5-(4-fluorophenyl)-6-oxo-1,6-dihydropyridazin-3-yl)methyl)-4-methyl-6-oxo-1,6-dihydropyrimidin-5-yl)oxy)benzonitrile] | 4
13 | CC(F)(F)c1ncn(Cc2cc(-c3ccc(F)cc3)c(=O)[nH]n2)c(=O)c1Oc1cc(Cl)cc(C#N)c1 [Example 170, 3-chloro-5-((4-(1,1-difluoroethyl)-1-((5-(4-fluorophenyl)-6-oxo-1,6-dihydropyridazin-3-yl)methyl)-6-oxo-1,6-dihydropyrimidin-5-yl)oxy)benzonitrile] | 5
14 | CC(F)(F)c1ncn(Cc2cc(-c3ccc(F)cc3)c(=O)[nH]n2)c(=O)c1Oc1cccc(C#N)c1F [Example 171, 3-((4-(1,1-difluoroethyl)-1-((5-(4-fluorophenyl)-6-oxo-1,6-dihydropyridazin-3-yl)methyl)-6-oxo-1,6-dihydropyrimidin-5-yl)oxy)-2-fluorobenzonitrile] | 3
15 | N#Cc1cc(Cl)cc(Oc2c(C(F)(F)F)ccn(Cc3cc(C(F)F)n[nH]c3=O)c2=O)c1 [Example 172, 3-chloro-5-((1-((6-(difluoromethyl)-3-oxo-2,3-dihydropyridazin-4-yl)methyl)-2-oxo-4-(trifluoromethyl)-1,2-dihydropyridin-3-yl)oxy)benzonitrile] | 5
16 | N#Cc1cc(Cl)cc(Oc2c(C(F)F)ncn(Cc3cc(C(F)F)n[nH]c3=O)c2=O)c1 [Example 173, 3-chloro-5-((4-(difluoromethyl)-1-((6-(difluoromethyl)-3-oxo-2,3-dihydropyridazin-4-yl)methyl)-6-oxo-1,6-dihydropyrimidin-5-yl)oxy)benzonitrile] | 6
17 | N#Cc1cccc(Oc2c(C(F)(F)F)ncn(Cc3cc(C(F)F)n[nH]c3=O)c2=O)c1F [Example 174, 3-((1-((6-(difluoromethyl)-3-oxo-2,3-dihydropyridazin-4-yl)methyl)-6-oxo-4-(trifluoromethyl)-1,6-dihydropyrimidin-5-yl)oxy)-2-fluorobenzonitrile] | 5
18 | CC(F)(F)c1ncn(Cc2cc(C(F)F)n[nH]c2=O)c(=O)c1Oc1cc(Cl)cc(C#N)c1 [Example 175, 3-chloro-5-((4-(1,1-difluoroethyl)-1-((6-(difluoromethyl)-3-oxo-2,3-dihydropyridazin-4-yl)methyl)-6-oxo-1,6-dihydropyrimidin-5-yl)oxy)benzonitrile] | 3
19 | Cc1ncn(Cc2cc(C(F)F)n[nH]c2=O)c(=O)c1Oc1cc(Cl)cc(C#N)c1 [Example 176, 3-chloro-5-((1-((6-(difluoromethyl)-3-oxo-2,3-dihydropyridazin-4-yl)methyl)-4-methyl-6-oxo-1,6-dihydropyrimidin-5-yl)oxy)benzonitrile] | 6
20 | CC(F)(F)c1ncn(Cc2cc(C(F)F)n[nH]c2=O)c(=O)c1Oc1cccc(C#N)c1F [Example 177, 3-((4-(1,1-difluoroethyl)-1-((6-(difluoromethyl)-3-oxo-2,3-dihydropyridazin-4-yl)methyl)-6-oxo-1,6-dihydropyrimidin-5-yl)oxy)-2-fluorobenzonitrile] | 17
21 | CC(F)(F)c1cc(Cn2cnc(C(F)(F)F)c(Oc3cccc(C#N)c3F)c2=O)c(=O)[nH]n1 [Example 178, 3-((1-((6-(1,1-difluoroethyl)-3-oxo-2,3-dihydropyridazin-4-yl)methyl)-6-oxo-4-(trifluoromethyl)-1,6-dihydropyrimidin-5-yl)oxy)-2-fluorobenzonitrile] | 9
22 | CC(F)(F)c1cc(Cn2cnc(C(F)F)c(Oc3cc(Cl)cc(C#N)c3)c2=O)c(=O)[nH]n1 [Example 179, 3-chloro-5-((1-((6-(1,1-difluoroethyl)-3-oxo-2,3-dihydropyridazin-4-yl)methyl)-4-(difluoromethyl)-6-oxo-1,6-dihydropyrimidin-5-yl)oxy)benzonitrile] | 8
23 | CC(F)(F)c1cc(Cn2cnc(C(C)(F)F)c(Oc3cc(Cl)cc(C#N)c3)c2=O)c(=O)[nH]n1 [Example 180, 3-chloro-5-((4-(1,1-difluoroethyl)-1-((6-(1,1-difluoroethyl)-3-oxo-2,3-dihydropyridazin-4-yl)methyl)-6-oxo-1,6-dihydropyrimidin-5-yl)oxy)benzonitrile] | 5
24 | Cc1ncn(Cc2cc(C(C)(F)F)n[nH]c2=O)c(=O)c1Oc1cc(Cl)cc(C#N)c1 [Example 181, 3-chloro-5-((1-((6-(1,1-difluoroethyl)-3-oxo-2,3-dihydropyridazin-4-yl)methyl)-4-methyl-6-oxo-1,6-dihydropyrimidin-5-yl)oxy)benzonitrile] | 12
25 | CC(F)(F)c1cc(Cn2cnc(C(C)(F)F)c(Oc3cccc(C#N)c3F)c2=O)c(=O)[nH]n1 [Example 182, 3-((4-(1,1-difluoroethyl)-1-((6-(1,1-difluoroethyl)-3-oxo-2,3-dihydropyridazin-4-yl)methyl)-6-oxo-1,6-dihydropyrimidin-5-yl)oxy)-2-fluorobenzonitrile] | 9
